# In article PMC8728441, “Biosynthesis of the redox cofactor mycofactocin is controlled by the transcriptional regulator MftR and induced by long-chain acyl-CoA species” (The Journal of Biological Chemistry, 2021):
# Key:
# [1] = molecular target: T1, MftR L120A (Mycolicibacterium smegmatis, UniProt A0QSB5, L120A); experiment: ITC binding of oleoyl-CoA to MftR variant; design: species or system Mycobacterium smegmatis mc^2155
# T1 sequence (A0QSB5 1-200 L120A): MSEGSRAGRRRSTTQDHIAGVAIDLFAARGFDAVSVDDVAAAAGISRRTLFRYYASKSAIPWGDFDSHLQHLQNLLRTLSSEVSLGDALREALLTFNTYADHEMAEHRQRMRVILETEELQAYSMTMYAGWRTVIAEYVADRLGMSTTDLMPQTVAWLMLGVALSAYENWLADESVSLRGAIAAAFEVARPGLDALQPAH
# [2] = molecular target: MftR (WT) (Mycolicibacterium smegmatis, UniProt A0QSB5); experiment: ITC binding of acyl-CoAs to MftR; design: species or system Mycobacterium smegmatis mc^2155
# Method: ITC was performed using TA Nano ITC. MftR was loaded in the sample cell at the concentration of 16 and 250 μM acyl-CoAs (C12–C18) loaded in the syringe. To minimize the effect of buffer mismatch, the stock concentration of acyl-CoAs was prepared using ITC buffer (50 mM Hepes, 50 mM NaCl, and pH 7.5), and the pH was adjusted to within 0.05 units. In addition, MftR was buffer exchanged into ITC buffer using a PD-10 column (GE Life Sciences). The volume of the titrant added at each injection into the sample cell was 2.22 μl. The time interval between the successive injections was 180 s. The temperature of the cell was kept at 25 °C. The data obtained were fit by independent one-site model using NanoAnalyze Data Analysis, version 3.8.0, that was provided with the instrument.
# [3] = system: MftR–Omft complex; experiment: Competitive EMSA screen for effectors of MftR; assay type: binding, Mycobacterium smegmatis mc^2155; conditions: 6-FAM Omft 0.5 μM, MftR 5 μM, effectors 100 μM
# Method: Next, we assessed which metabolites activate MftR and thus could induce MFT production. To do so, we carried out competitive EMSAs where FAM-labeled Omft and MftR were incubated in the presence of potential effectors. We initially chose our effectors based on cholesterol catabolism, a process that putatively includes MFT biosynthetic genes ([38]). […] Knowing that TFRs have a propensity to be activated by fatty acyl-CoAs ([20]), we expanded our effector screening to include short-chain, medium-chain, and long-chain acyl-CoAs.
# Figure 4 Effectors of MftR.A, an EMSA used to screen effectors of MftR. The 6-FAM–labeled Omft region (0.5 μM) was incubated with the MftR (5 μM) in the absence or the presence of effectors (100 μM). Protein–DNA complexes were separated by electrophoresis on 5% polyacrylamide gel. […] B, a representative isothermal titration calorimetry thermogram for the binding of the oleoyl-CoA to MftR regulator (blue) and the control of oleoyl-CoA into buffer (red). Each peak corresponds to the injection of 2.22 μl of 250 μM oleoyl-CoA into the cell containing 16 μM MftR or buffer. The integrated thermogram (blue dots) was fitted to a single-site binding model (black line) to determine the Kd. […] C, a bar graph depicting the ITC measured Kds for various acyl-CoAs. Bars represent the mean of three independent experiments, and the error bars represent the standard deviation of the experiments. 6-FAM, 6-carboxyfluorescein; ITC, isothermal titration calorimetry; Omft, mft operator.
# His-tagged MftR was used to assess the protein binding to Pmft–MftA promoter fragment. DNA was mixed with increasing concentrations of the MftR protein in the reaction buffer (50 mM Hepes, 50 mM NaCl 0.1 mM EDTA, and pH 7.5) and incubated at room temperature for 10 min. The reactions were resolved by electrophoresis on a 5% (v/v) nondenaturing polyacrylamide gel in 1× Tris/borate/EDTA buffer at 200 V for 20 min on ice. Prior to the analysis, the gel was prerun for 30 min at 150 V on ice. Results were visualized by GelRed and recorded using Azure Biosystems 600 imaging system.
# [4] = system: MftR H68A–Omft complex; experiment: Competitive EMSA with H68A mutant and oleoyl-CoA; assay type: binding, Mycobacterium smegmatis mc^2155; conditions: up to 100 μM oleoyl-CoA
# Source text: Next, we examined which amino acid residues contribute to the interaction between MftR and oleoyl-CoA. The crystal structure of Msmeg MftR is currently unavailable; however, an unpublished structure of Rhodococcus jostii RHA1 MftR has been deposited in the Protein Data Bank (PDB) (PDB ID: 2RAE, 54% identical, Fig. S3). Using this structure, we employed SwissDock to model oleoyl-CoA bound to MftR (Fig. 5) ([41], [42]). From the docked structure, we identified eight conserved residues on MftR that were expected to create the acyl-binding pocket or bind CoA through electrostatic interactions. Following single amino acid replacements of the residues, we measured the Kd values of the mutant proteins to oleoyl-CoA using ITC. For the putative acyl-binding pocket residues Phe65, Phe96, and Ile114, mutations to alanine led to no or modest change to the Kd for oleoyl-CoA (Table 1). […] Conversely, when His68 was mutated to alanine, binding of oleoyl-CoA by the protein was undetectable. To validate this observation, competitive EMSAs were carried out using the H68A mutant. […] Thus, it is highly likely that His68 is an important residue for oleoyl-CoA binding. To evaluate residues that were expected to interact with CoA, Gln15, Asp16, Ser67, and Asp66 were targeted. Of these, mutants of Asp16 and Ser67 had the greatest effect (Table 1). […]
smiles,measurement,setting,value
CCCCCCCC/C=C\CCCCCCCC(=O)SCCNC(=O)CCNC(=O)[C@H](O)C(C)(C)COP(=O)(O)OP(=O)(O)OC[C@H]1O[C@@H](n2cnc3c(N)ncnc32)[C@H](O)[C@@H]1OP(=O)(O)O [oleoyl-CoA],Kd,[1],5.2 ± 0.2 µM
same,Kd,[2],1.4 ± 0.1 µM
same,number of binding sites,"[2]; ITC, WT MftR, one-site model",~0.6 sites per monomer MftR
same,disruption of the MftR–Omft complex (DNA release),[3],disrupted the MftR–Omft complex
same,release of Omft from H68A mutant,[4],remained bound to Omft
